Measured values as given in US5135943A, “1H-imidazole derivative compounds and pharmaceutical compositions containing the same” (priority 1984, dated 1992).
Converted amounts (≈) assume the structure as drawn. Read-outs that look alike come from different tables or passages of the source.

Experiments:
[1] = tested on: 16 microorganisms; test: Geometric mean of all MIC measurements, comparative in vitro testing; type: cell-based; settings: read-out: Geometric means of MIC
Protocol: (§1) Minimum Inhibitory Concentrations (MICS) of Sertaconazole were also measured in comparison to four of the compounds described in the Martin Patent, including a compound, referred to herein as Martin Compound 1, which has the same structure as Sertaconazole, expect that the sulfur in the benzothiophene ring is replaced by an oxygen.
(§2) The results of comparative in vitro testing of Sertaconazole and these four Martin compounds are shown in the following Table II against 16 microorganisms. The reading time is the time interval from the time of inoculation to the time of measurement.

[2] = tested on: C. guillermondii; test: MIC, comparative in vitro testing against Martin compounds; type: cell-based; settings: read-out: MIC
Protocol: as §1, §2

[3] = tested on: C. albicans 15; test: as above; type: cell-based; settings: Casitone medium
Protocol: as §1, §2

[4] = tested on: C. albicans 31; test: as above; type: cell-based; settings: Candida albicans, 31, YNB medium, read-out: MIC
Protocol: as §1, §2

[5] = tested on: C. albicans 14; test: as above; type: cell-based; settings: Casitone medium
Protocol: as §1, §2

[6] = tested on: C. krusei 24; test: as above; type: cell-based; settings: read-out: MIC
Protocol: as §1, §2

[7] = tested on: C. albicans 32; test: as above; type: cell-based; settings: Candida albicans, 32, YNB medium, read-out: MIC
Protocol: as §1, §2

[8] = tested on: C. parapsilosis 19; test: as above; type: cell-based
Protocol: as §1, §2

[9] = tested on: C. stellatoidea 36232; test: as above; type: cell-based
Protocol: as §1, §2

[10] = tested on: C. tropicalis 25; test: as above; type: cell-based; settings: YNB medium
Protocol: as §1, §2

[11] = tested on: C. pseudotropicalis 21; test: as above; type: cell-based; settings: Kluyveromyces marxianus, 21, Sabouraud medium, read-out: MIC
Protocol: as §1, §2

[12] = tested on: C. albicans ATCC E-10231; test: as above; type: cell-based; settings: Candida albicans, ATCCE10231, Casitone medium, read-out: MIC
Protocol: as §1, §2

[13] = tested on: Swiss mice; test: Acute toxicity in Swiss mice i.p.; settings: for LD0: Swiss mice i.p.
Description: (§3) Such signs included convulsions and Straub tail(vertical righting of the tail).

[14] = in vivo; settings: mouse, ip
Description: as §3

[15] = tested on: Swiss mice; settings: mouse, in vivo
Description: as §3

## Clc1ccc(C(Cn2ccnc2)OCc2coc3cc(Cl)ccc23)c(Cl)c1 (centres unmarked) [Martin compound 2, reference compound]
[1]; 48 h, SZ vs M2, reading time 48 h
  MIC: 0.565 µg/mL (≈ 1.34 µM)
[2]; 48 h, Casitone medium, reading time 48 h, SZ vs M2
  MIC: 0.5 µg/mL (≈ 1.19 µM)
[2]; 48 h, YNB medium, reading time 48 h, SZ vs M2
  MIC: 0.5 µg/mL (≈ 1.19 µM)
[3]; Candida albicans, 15, 48 h, reading time 48 h, SZ vs M2
  MIC: 0.06 µg/mL (≈ 0.142 µM)
[4]; reading time 48 h, SZ vs M2
  MIC: 4 µg/mL (≈ 9.49 µM)
[5]; Candida albicans, 14, 48 h, reading time 48 h, SZ vs M2
  MIC: 0.25 µg/mL (≈ 0.593 µM)
[6]; Pichia kudriavzevii, 24, 48 h, Casitone medium, reading time 48 h, SZ vs M2
  MIC: 0.05 µg/mL (≈ 0.119 µM)
[6]; Pichia kudriavzevii, 24, 48 h, YNB medium, reading time 48 h, SZ vs M2
  MIC: 0.5 µg/mL (≈ 1.19 µM)
[7]; reading time 48 h, SZ vs M2
  MIC: 4 µg/mL (≈ 9.49 µM)
[8]; 19, 48 h, Sabouraud medium, reading time 48 h, SZ vs M2
  MIC: 1 µg/mL (≈ 2.37 µM)
[8]; 19, 48 h, YNB medium, reading time 48 h, SZ vs M2
  MIC: 1 µg/mL (≈ 2.37 µM)
[9]; Candida albicans, 36232, 48 h, Casitone medium, reading time 48 h, SZ vs M2
  MIC: 0.06 µg/mL (≈ 0.142 µM)
[9]; Candida albicans, 36232, 48 h, Sabouraud medium, reading time 48 h, SZ vs M2
  MIC: 0.5 µg/mL (≈ 1.19 µM)
[9]; Candida albicans, 36232, 48 h, YNB medium, reading time 48 h, SZ vs M2
  MIC: 1 µg/mL (≈ 2.37 µM)
[10]; Candida tropicalis, 25, 48 h, reading time 48 h, SZ vs M2
  MIC: 8 µg/mL (≈ 19 µM)
[11]; reading time 48 h, SZ vs M2
  MIC: 0.06 µg/mL (≈ 0.142 µM)
[12]; reading time 48 h, SZ vs M2
  MIC: 0.5 µg/mL (≈ 1.19 µM)
[13]
  LD0: 235 mg/kg
[14]
  LD50: 640 mg/kg

## Clc1ccc(C(Cn2ccnc2)OCc2cc3cc(Cl)ccc3o2)c(Cl)c1 (centres unmarked) [Martin compound 3, reference compound]
[1]; 48 h, SZ vs M3, reading time 48 h
  MIC: 0.497 µg/mL (≈ 1.18 µM)
[15]
  mice with generalized pulmonary edema and congestion: 80%
  signs of intoxication in the central nervous system (convulsions and Straub tail): evident signs of intoxication in the central nervous system
[15]; ip
  LD0: 423 mg/kg
[2]; 48 h, Casitone medium, reading time 48 h, SZ vs M3
  MIC: 0.25 µg/mL (≈ 0.593 µM)
[2]; 48 h, YNB medium, reading time 48 h, SZ vs M3
  MIC: 0.25 µg/mL (≈ 0.593 µM)
[3]; Candida albicans, 15, 48 h, reading time 48 h, SZ vs M3
  MIC: 0.06 µg/mL (≈ 0.142 µM)
[4]; reading time 48 h, SZ vs M3
  MIC: 4 µg/mL (≈ 9.49 µM)
[5]; Candida albicans, 14, 48 h, reading time 48 h, SZ vs M3
  MIC: 0.5 µg/mL (≈ 1.19 µM)
[6]; Pichia kudriavzevii, 24, 48 h, Casitone medium, reading time 48 h, SZ vs M3
  MIC: 0.125 µg/mL (≈ 0.296 µM)
[6]; Pichia kudriavzevii, 24, 48 h, YNB medium, reading time 48 h, SZ vs M3
  MIC: 0.25 µg/mL (≈ 0.593 µM)
[7]; reading time 48 h, SZ vs M3
  MIC: 4 µg/mL (≈ 9.49 µM)
[8]; 19, 48 h, Sabouraud medium, reading time 48 h, SZ vs M3
  MIC: 0.5 µg/mL (≈ 1.19 µM)
[8]; 19, 48 h, YNB medium, reading time 48 h, SZ vs M3
  MIC: 1 µg/mL (≈ 2.37 µM)
[9]; Candida albicans, 36232, 48 h, Casitone medium, reading time 48 h, SZ vs M3
  MIC: 0.125 µg/mL (≈ 0.296 µM)
[9]; Candida albicans, 36232, 48 h, Sabouraud medium, reading time 48 h, SZ vs M3
  MIC: 0.5 µg/mL (≈ 1.19 µM)
[9]; Candida albicans, 36232, 48 h, YNB medium, reading time 48 h, SZ vs M3
  MIC: 4 µg/mL (≈ 9.49 µM)
[10]; Candida tropicalis, 25, 48 h, reading time 48 h, SZ vs M3
  MIC: 8 µg/mL (≈ 19 µM)
[11]; reading time 48 h, SZ vs M3
  MIC: 0.03 µg/mL (≈ 0.0711 µM)
[12]; reading time 48 h, SZ vs M3
  MIC: 0.5 µg/mL (≈ 1.19 µM)
[14]
  LD50: 640 mg/kg

## Clc1ccc(C(Cn2ccnc2)OCc2coc3c(Cl)cccc23)c(Cl)c1 (centres unmarked) [Martin compound 1, reference compound]
[1]; 60 h, SZ vs M1, reading time 60 h
  MIC: 1.09 µg/mL (≈ 2.58 µM)
[2]; 60 h, Casitone medium, reading time 60 h, SZ vs M1
  MIC: 0.5 µg/mL (≈ 1.19 µM)
[2]; 60 h, YNB medium, reading time 60 h, SZ vs M1
  MIC: 0.5 µg/mL (≈ 1.19 µM)
[3]; Candida albicans, 15, 60 h, reading time 60 h, SZ vs M1
  MIC: 1 µg/mL (≈ 2.37 µM)
[4]; reading time 60 h, SZ vs M1
  MIC: 8 µg/mL (≈ 19 µM)
[5]; Candida albicans, 14, 60 h, reading time 60 h, SZ vs M1
  MIC: 2 µg/mL (≈ 4.74 µM)
[6]; Pichia kudriavzevii, 24, 60 h, Casitone medium, reading time 60 h, SZ vs M1
  MIC: 1 µg/mL (≈ 2.37 µM)
[6]; Pichia kudriavzevii, 24, 60 h, YNB medium, reading time 60 h, SZ vs M1
  MIC: 0.25 µg/mL (≈ 0.593 µM)
[7]; reading time 60 h, SZ vs M1
  MIC: 8 µg/mL (≈ 19 µM)
[8]; 19, 60 h, Sabouraud medium, reading time 60 h, SZ vs M1
  MIC: 1 µg/mL (≈ 2.37 µM)
[8]; 19, 60 h, YNB medium, reading time 60 h, SZ vs M1
  MIC: 0.5 µg/mL (≈ 1.19 µM)
[9]; Candida albicans, 36232, 60 h, Casitone medium, reading time 60 h, SZ vs M1
  MIC: 0.5 µg/mL (≈ 1.19 µM)
[9]; Candida albicans, 36232, 60 h, Sabouraud medium, reading time 60 h, SZ vs M1
  MIC: 1 µg/mL (≈ 2.37 µM)
[9]; Candida albicans, 36232, 60 h, YNB medium, reading time 60 h, SZ vs M1
  MIC: 4 µg/mL (≈ 9.49 µM)
[10]; Candida tropicalis, 25, 60 h, reading time 60 h, SZ vs M1
  MIC: 8 µg/mL (≈ 19 µM)
[11]; reading time 60 h, SZ vs M1
  MIC: 0.03 µg/mL (≈ 0.0711 µM)
[12]; reading time 60 h, SZ vs M1
  MIC: 2 µg/mL (≈ 4.74 µM)
[13]
  LD0: 285 mg/kg
[13]; mice
  signs of intoxication in the central nervous system (convulsions and Straub tail): evident signs of intoxication in the central nervous system
[14]
  LD50: 518 mg/kg

## Clc1ccc(C(Cn2ccnc2)OCc2csc3c(Cl)cccc23)c(Cl)c1 (centres unmarked) [Sertaconazole nitrate]
[15]; ip
  LD0: 2000 mg/kg
  LD50: 8000 mg/kg
